Values quoted from earlier work in patent US20040115708A1, “Method of screening agents for the treatment and prevention of cancer and cachexia and the new use of specific agents for the treatment and prevention of cancer and cachexia” (priority 2002, published 2004).

Assays:
[1] = system: 8-Hydroxy-deoxyguanosine (8-OH-dG) in lung DNA
[2] = system: cancer in NNK treated animals; conditions: consumption of EGCG

| Compound | 8-OH-dG (hydroxyl radical-caused DNA adduct) level ([1]; mice treated with NNK) | levels of 8-OH-dG in lung DNA ([1]; consumption of EGCG, NNK treated animals) | incidence of cancer [2] |
| --- | --- | --- | --- |
| CN(CCCC(=O)c1cccnc1)N=O [NNK, 4-(methyInitrosamino)-1-(3-pyridyl)-1-butanone] | elevated | – | – |
| (−)-epigallocatechin gallate | – | significantly lowers | decreases |
